Results published in ChEMBL document CHEMBL1201862, “PubChem BioAssay data set” (2004).
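Compound exposure: 48 hours, 5 concentrations, 96-well plates. At the GI50, growth is halved.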 Activity calls are given as the source filed them. Rule as the data show it: active = GI50 up to about 1.1 µM and inactive = higher.

Assays:
Assay in all cases: NCI tumour cell line growth inhibition, 48 h
Hs-578T = system: Hs-578T
MCF7 = system: MCF7
MDA-N = system: MDA-N
PC-3 = system: PC-3
T47D = system: T47D
DLD-1 = system: DLD-1
XF498 = system: XF498
M19-MEL = system: M19-MEL
RXF 631 = system: RXF 631

Row | Compound | GI50 (DLD-1) | GI50 (XF498) | GI50 (M19-MEL) | other results
1 | CC(C)NC(=O)OCc1c(COC(=O)NC(C)C)c(-c2ccc[n+](COC(=O)C3CCCCC3)c2)n2c1CCC2 |  |  |  | GI50 (Hs-578T): > 100 µM (inactive); GI50 (MCF7): 36.6 µM (inactive); GI50 (MDA-N): > 100 µM (inactive); GI50 (PC-3): 48.6 µM (inactive); GI50 (T47D): 57.8 µM (inactive)
2 | CC1CC2=C(S(=O)(=O)c3ccccc3)CC(S(=O)(=O)c3ccccc3)(S(=O)(=O)c3ccccc3)CC21 (centres undefined) | > 100 µM (inactive) | > 100 µM (inactive) |  | 
3 | OC1CCOc2ccccc21 (centres undefined) | > 100 µM (inactive) | > 100 µM (inactive) | > 100 µM (inactive) | 
4 | Cc1cc(=O)oc2c1cc1ccc3cccc4ccc2c1c34 | > 100 µM (inactive) |  | > 100 µM (inactive) | 
5 | COC1=CC(=O)C2(C=C1OC)OC[C@H]1Oc3c(ccc4c3C=CC(C)(C)O4)C(=O)[C@H]12 (some centres undefined) | 43.6 µM (inactive) | 40.9 µM (inactive) | 40.8 µM (inactive) | GI50 (RXF 631): > 100 µM (inactive)
6 | NC(=O)/N=C1/CCC2C3CCCC2C13 | > 100 µM (inactive) | > 100 µM (inactive) |  | 
7 | O=C1Nc2ccc(Cl)cc2/C1=C\c1c(Cl)nc2sccn12 |  |  |  | GI50 (MDA-N): 1.91 µM (inactive); GI50 (PC-3): 4.93 µM (inactive); GI50 (T47D): > 100 µM (inactive)
8 | COP(=O)(OC)C(N)Cc1c[nH]c2ccccc12 (centres undefined) |  |  |  | GI50 (Hs-578T): > 100 µM (inactive); GI50 (MCF7): > 100 µM (inactive); GI50 (MDA-N): > 100 µM (inactive); GI50 (PC-3): > 100 µM (inactive); GI50 (T47D): > 100 µM (inactive)
9 | C[N+](C)(C)CC(=O)NC(=O)N/N=C\C(CC#N)CN(Cc1ccccc1)Cc1ccccc1 (centres undefined) | > 100 µM (inactive) | > 100 µM (inactive) | > 100 µM (inactive) | GI50 (RXF 631): > 100 µM (inactive)
10 | O=C1CCC(NC(=O)Cc2ccc(O)cc2)C(=O)N1 (centres undefined) |  | > 2500 µM (inactive) | > 2500 µM (inactive) | GI50 (RXF 631): > 2500 µM (inactive)
11 | Cc1ccc(C2CC(c3cccc([N+](=O)[O-])c3)=Nc3ccccc3S2)cc1 (centres undefined) | 20 µM (inactive) | 21.4 µM (inactive) | 40.4 µM (inactive) | GI50 (RXF 631): > 93.8 µM (inactive)
12 | CC1CC(C[N+](=O)[O-])CC2(C1)OCCO2 (centres undefined) | > 100 µM (inactive) |  | > 100 µM (inactive) | 
13 | COc1ccccc1N1C(=O)/C(=C\c2cc(OC)c(OC)c(OC)c2)SC1c1ccccc1 (centres undefined) |  |  |  | GI50 (Hs-578T): 24 µM (inactive); GI50 (MCF7): 18.2 µM (inactive); GI50 (MDA-N): 15.2 µM (inactive); GI50 (T47D): 36.6 µM (inactive)
14 | CC[C@H]1CC(=O)c2c(cc3c(c2O)C(=O)c2ccccc2C3=O)[C@@]1(C#N)C(=O)OC(C)(C)C | 2.33 µM (inactive) | 2.74 µM (inactive) | 3.7 µM (inactive) | 
15 | CN(C)CCNC(=O)c1cc2ccccc2c2nc3ccccc3nc12 | 0.447 µM (active) |  | 1.01 µM (active) | 
16 | N#Cc1c2ccc([N+](=O)[O-])cc2c(=O)n2c1sc1ccc(C(F)(F)F)cc12 |  |  |  | GI50 (T47D): > 100 µM (inactive)
17 | Cn1c(=O)c(C#N)c(O)c2cc3ccccc3nc21 | > 100 µM (inactive) | > 100 µM (inactive) | > 100 µM (inactive) | 
18 | O=C(OCCOC(=O)c1ccc2c(c1)C1(SCCS1)c1ccccc1-2)c1ccc2c(c1)C1(SCCS1)c1ccccc1-2 | > 100 µM (inactive) |  | > 100 µM (inactive) | 
19 | CC(=O)OC1CC2CCN3C(=O)c4cc5c(cc4[C@H](C1OC(C)=O)C23)OCO5 (some centres undefined) | > 100 µM (inactive) |  | > 100 µM (inactive) | 
20 | O=C1NC(O)CCN1C1OC(CO)C(O)C1O (centres undefined) | > 250 µM (inactive) | > 250 µM (inactive) | > 213 µM (inactive) | GI50 (MCF7): > 250 µM (inactive)
21 | CC/C=C\C/C=C\C/C=C\CCCCCCCC(=O)OC [METHYL LINOLENATE] | > 100 µM (inactive) | > 100 µM (inactive) | > 100 µM (inactive) | GI50 (MCF7): > 100 µM (inactive)
